By IC50 is commonly meant the concentration at which inhibition is half-maximal. Lower therefore signals inhibition by little substance.

Each structure is given as a SMILES string. Some results are limits rather than exact numbers.

For this assay, the system named is Endogenous Huntingtin Protein. The assay is described as follows: Endogenous Huntingtin Protein Assay (ELISA-based Meso Scale Discovery electrochemiluminescence). Format: cell-based. Conditions: MSD electrochemiluminescence, Table 1. In short, it runs like this:
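Sandwich MSD electrochemiluminescence immunoassay. Capture used MW1 (expanded polyglutamine) or MAB2166 antibody coated at 1 μg/mL overnight at 4 °C. Samples were bound overnight at 4 °C, then a rabbit monoclonal detection antibody and SULFO-TAG anti-rabbit, each at 0.25 μg/mL, were applied for 1 h at room temperature.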
(ELISA stands for enzyme-linked immunosorbent assay.)
For `CN(c1ncc(-c2ccc(-c3nnn(C)n3)cc2O)nn1)C1CC(C)(C)NC(C)(C)C1` [Cpd 143, 2-{3-[methyl(2,2,6,6-tetramethylpiperidin-4-yl)amino]-1,2,4-triazin-6-yl}-5-(2-methyl-2H-tetrazol-5-yl)phenol], the IC50 was ≤ 0.1 µM.

Turning to `COc1cnc(-c2ccc(-c3cnc(N(C)C4CC(C)(C)NC(C)(C)C4)nn3)c(O)c2)nn1` [Cpd 144, 5-(6-methoxy-1,2,4-triazin-3-yl)-2-{3-[methyl(2,2,6,6-tetramethylpiperidin-4-yl)amino]-1,2,4-triazin-6-yl}phenol], the IC50 is ≤ 0.1 µM.

On to `CN(c1ncc(-c2ccc(-c3ccc4ncoc4c3)cc2O)nn1)C1CC(C)(C)NC(C)(C)C1` [Cpd 145, 5-(1,3-benzoxazol-6-yl)-2-{3-[methyl(2,2,6,6-tetramethylpiperidin-4-yl)amino]-1,2,4-triazin-6-yl}phenol], for which the IC50 was ≤ 0.1 µM. As for `CN(c1ncc(-c2ccc(-c3cc(=O)n(C)cn3)cc2O)nn1)C1CC(C)(C)NC(C)(C)C1` [Cpd 146, 6-(3-hydroxy-4-{3-[methyl(2,2,6,6-tetramethylpiperidin-4-yl)amino]-1,2,4-triazin-6-yl}phenyl)-3-methylpyrimidin-4(3H)-one], the IC50 was ≤ 0.1 µM. For `CN(c1ncc(-c2ccc(-c3cnn(C)c(=O)c3)cc2O)nn1)C1CC(C)(C)NC(C)(C)C1` [Cpd 147, 5-(3-hydroxy-4-{3-[methyl(2,2,6,6-tetramethylpiperidin-4-yl)amino]-1,2,4-triazin-6-yl}phenyl)-2-methylpyridazin-3(2H)-one], the IC50 is ≤ 0.1 µM. Regarding `CC(C)NC1CCN(c2ncc(-c3ccc(-c4cn[nH]c4)cc3O)nn2)C1` (stereo not drawn) [Cpd 148, 2-(3-{3-[(propan-2-yl)amino]pyrrolidin-1-yl}-1,2,4-triazin-6-yl)-5-(1H-pyrazol-4-yl)phenol], the IC50 was ≤ 0.1 µM. For `CN1CCC2(CC1)CN(c1ncc(-c3ccc(-c4c[nH]nc4F)cc3O)nn1)C2` [Cpd 149, 5-(3-fluoro-1H-pyrazol-4-yl)-2-[3-(7-methyl-2,7-diazaspiro[3.5]nonan-2-yl)-1,2,4-triazin-6-yl]phenol], the IC50 was ≤ 0.1 µM. As to `Oc1cc(-c2c[nH]nc2F)ccc1-c1cnc(N2CC[C@H]3NCC[C@H]3C2)nn1` [Cpd 150, 5-(3-fluoro-1H-pyrazol-4-yl)-2-{3-[(3aS,7aR)-octahydro-5H-pyrrolo[3,2-c]pyridin-5-yl]-1,2,4-triazin-6-yl}phenol], the 50% inhibitory concentration (IC50) is ≤ 0.1 µM. The value for `Oc1cc(-c2c[nH]nc2F)ccc1-c1cnc(N2CC3(CCNCC3)C2)nn1` [Cpd 151, 2-[3-(2,7-diazaspiro[3.5]nonan-2-yl)-1,2,4-triazin-6-yl]-5-(3-fluoro-1H-pyrazol-4-yl)phenol] was ≤ 0.1 µM; that for `CN(c1ncc(-c2ccc(-c3ccn4nncc4c3)cc2O)nn1)C1CC(C)(C)NC(C)(C)C1` [Cpd 152, 2-{3-[methyl(2,2,6,6-tetramethylpiperidin-4-yl)amino]-1,2,4-triazin-6-yl}-5-([1,2,3]triazolo[1,5-a]pyridin-5-yl)phenol] was ≤ 0.1 µM; that for `CN1CC[C@H]2CN(c3ncc(-c4ccc(-c5c[nH]nc5F)cc4O)nn3)CC[C@H]21` [Cpd 153, 5-(3-fluoro-1H-pyrazol-4-yl)-2-{3-[(3aS,7aR)-1-methyloctahydro-5H-pyrrolo[3,2-c]pyridin-5-yl]-1,2,4-triazin-6-yl}phenol] was 0.1 to 0.5 µM. Take `CCC(C)(C)NC1CCN(c2ncc(-c3ccc(-c4cn[nH]c4)cc3O)nn2)C1` (stereo not drawn) [Cpd 154, 2-(3-{3-[(2-methylbutan-2-yl)amino]pyrrolidin-1-yl}-1,2,4-triazin-6-yl)-5-(1H-pyrazol-4-yl)phenol]: the IC50 is ≤ 0.1 µM. The value for `CN(c1ncc(-c2ccc(-c3ccn4nnnc4c3)cc2O)nn1)C1CC(C)(C)NC(C)(C)C1` [Cpd 155, 2-{3-[methyl(2,2,6,6-tetramethylpiperidin-4-yl)amino]-1,2,4-triazin-6-yl}-5-(tetrazolo[1,5-a]pyridin-7-yl)phenol] was ≤ 0.1 µM. The value for `CN(c1ncc(-c2ccc(-c3n[nH]cc3F)cc2O)nn1)C1CC(C)(C)NC(C)(C)C1` [Cpd 156, 5-(4-fluoro-1H-pyrazol-3-yl)-2-{3-[methyl(2,2,6,6-tetramethylpiperidin-4-yl)amino]-1,2,4-triazin-6-yl}phenol] was ≤ 0.1 µM; that for `Oc1cc(-c2cn[nH]c2)ccc1-c1cnc(N2CCC(NC34CC5CC(CC(C5)C3)C4)C2)nn1` (stereo not drawn) [Cpd 157, 2-(3-{3-[(adamantan-1-yl)amino]pyrrolidin-1-yl}-1,2,4-triazin-6-yl)-5-(1H-pyrazol-4-yl)phenol] was 0.1 to 0.5 µM. With `CN(c1ncc(-c2ccc(-c3cnc4[nH]ccc4n3)cc2O)nn1)C1CC(C)(C)NC(C)(C)C1` [Cpd 158, 2-{3-[methyl(2,2,6,6-tetramethylpiperidin-4-yl)amino]-1,2,4-triazin-6-yl}-5-(5H-pyrrolo[2,3-b]pyrazin-2-yl)phenol], the IC50 is 1 to 3 µM. As to `Oc1cc(-c2cn[nH]c2)ccc1-c1cnc(N2CCC(NC3C4CC5CC(C4)CC3C5)C2)nn1` (stereo not drawn) [Cpd 159, 2-(3-{3-[(adamantan-2-yl)amino]pyrrolidin-1-yl}-1,2,4-triazin-6-yl)-5-(1H-pyrazol-4-yl)phenol], the IC50 fell in the range of 1 to 3 µM. As for `CC12CC3CC(C)(C1)CC(NC1CCN(c4ncc(-c5ccc(-c6cn[nH]c6)cc5O)nn4)C1)(C3)C2` (stereo not drawn) [Cpd 160, 2-(3-{3-[(3,5-dimethyladamantan-1-yl)amino]pyrrolidin-1-yl}-1,2,4-triazin-6-yl)-5-(1H-pyrazol-4-yl)phenol], the IC50 was 1 to 3 µM. As to `CN(c1ncc(-c2ccc(-n3cc(CO)cn3)cc2O)nn1)C1CC(C)(C)NC(C)(C)C1` [Cpd 161, 5-[4-(hydroxymethyl)-1H-pyrazol-1-yl]-2-{3-[methyl(2,2,6,6-tetramethylpiperidin-4-yl)amino]-1,2,4-triazin-6-yl}phenol], the IC50 is ≤ 0.1 µM. With `CN(C)[C@@H]1CC[C@@H]2CN(c3ncc(-c4ccc(-c5cn[nH]c5)cc4O)nn3)C[C@@H]21` [Cpd 162, 2-{3-[(3aR,4R,6aS)-4-(dimethylamino)hexahydrocyclopenta[c]pyrrol-2(1H)-yl]-1,2,4-triazin-6-yl}-5-(1H-pyrazol-4-yl)phenol], the IC50 was 0.1 to 0.5 µM.

The compound `CN(c1ncc(-c2ccc(-c3ccc4ncn(C)c4n3)cc2O)nn1)C1CC(C)(C)NC(C)(C)C1` [Cpd 163, 5-(3-methyl-3H-imidazo[4,5-b]pyridin-5-yl)-2-{3-[methyl(2,2,6,6-tetramethylpiperidin-4-yl)amino]-1,2,4-triazin-6-yl}phenol] registered an IC50 of 1 to 3 µM. The value for `CN(c1ncc(-c2ccc(-c3ccc4c(ncn4C)n3)cc2O)nn1)C1CC(C)(C)NC(C)(C)C1` [Cpd 164, 5-(1-methyl-1H-imidazo[4,5-b]pyridin-5-yl)-2-{3-[methyl(2,2,6,6-tetramethylpiperidin-4-yl)amino]-1,2,4-triazin-6-yl}phenol] was 0.1 to 0.5 µM; that for `N[C@H]1CC[C@@H]2CN(c3ncc(-c4ccc(-c5cn[nH]c5)cc4O)nn3)C[C@@H]21` [Cpd 165, 2-{3-[(3aR,4S,6aS)-4-aminohexahydrocyclopenta[c]pyrrol-2(1H)-yl]-1,2,4-triazin-6-yl}-5-(1H-pyrazol-4-yl)phenol] was ≤ 0.1 µM; that for `CN1CCC2CN(c3ncc(-c4ccc(-c5cn[nH]c5)cc4O)nn3)CC2C1` (stereo not drawn) [Cpd 166, 2-[3-(5-methyloctahydro-2H-pyrrolo[3,4-c]pyridin-2-yl)-1,2,4-triazin-6-yl]-5-(1H-pyrazol-4-yl)phenol] was ≤ 0.1 µM.

The record behind these values is US11780839B2, “Compounds for treating Huntington's disease” (PTC THERAPEUTICS, INC., priority 2018, dated 2023).
